This note sets out measurements from the Biogen ADME set (Fang et al. 2023).

For the series the following is noted: for aqueous solubility: pH 6.8.

≈ marks a conversion by molar mass, not a printed value.

For orientation: aqueous solubility means the dissolved amount per volume that the medium holds. Read a low aqueous solubility as a poorly soluble substance. In the case of `O=C(/C=C\n1cnc(-c2cc(C(F)(F)F)cc(C(F)(F)F)c2)n1)NNc1cnccn1`, the MDR1-MDCK efflux ratio was found to be 1.96; the intrinsic clearance, human liver microsomes came to 4.77 mL/min/kg; the intrinsic clearance, rat liver microsomes came out at 14.3 mL/min/kg; the aqueous solubility stood at 12.5 µg/mL (≈ 28.1 µM).

In the case of `Cc1cc(C(=O)N(C)Cc2ccsc2)no1`, the MDR1-MDCK efflux ratio turned out to be 0.653; the intrinsic clearance, human liver microsomes worked out at 11 mL/min/kg; the intrinsic clearance, rat liver microsomes worked out at 241 mL/min/kg; the aqueous solubility came to 34.1 µg/mL (≈ 144 µM).

Take `CC(C)c1cc(N2CCc3[nH]nc(C4CC4)c3C2)n2nccc2n1`: the MDR1-MDCK efflux ratio was determined as 6.42; the intrinsic clearance, human liver microsomes worked out at 70.4 mL/min/kg; the intrinsic clearance, rat liver microsomes was 381 mL/min/kg; the aqueous solubility was 23.8 µg/mL (≈ 73.7 µM).

With `CCCc1nc2nc(C)c(NS(=O)(=O)c3ccc(C4CCCCC4)cc3)c(O)n2n1`, the MDR1-MDCK efflux ratio worked out at 50.3; the fraction unbound, human plasma turned out to be 0.00604; the fraction unbound, rat plasma was 0.00729; the intrinsic clearance, human liver microsomes turned out to be 169 mL/min/kg. For the same compound, the aqueous solubility was found to be 43.9 µg/mL (≈ 102 µM).

In turn, `CC(C)[C@@](C)(O)[C@@H]1CN(c2nc(-c3n[nH]c4ncccc34)c(F)cc2Cl)CCN1` gave a fraction unbound, human plasma of 0.201 and a fraction unbound, rat plasma of 0.0419.

`CCCCc1nc2cc(/C=C/C(=O)NO)ccc2n1CCN(CC)CC`: the MDR1-MDCK efflux ratio was determined as 28.3; the intrinsic clearance, human liver microsomes is no more than 4.74 mL/min/kg; the intrinsic clearance, rat liver microsomes turned out to be 366 mL/min/kg; the aqueous solubility came to 57.5 µg/mL (≈ 160 µM).

As to `CCc1nc(C)cc(N2CCCC3(CCNCC3)CC2)n1`, the MDR1-MDCK efflux ratio came out at 32.4; the intrinsic clearance, human liver microsomes is no more than 4.74 mL/min/kg; the intrinsic clearance, rat liver microsomes is no more than 10.7 mL/min/kg.

With `Cc1cc(C)cc(OCCN(C)C(=O)NCCS(=O)(=O)N(C)C)c1`, the MDR1-MDCK efflux ratio was found to be 12.1; the intrinsic clearance, human liver microsomes stood at 37.4 mL/min/kg; the intrinsic clearance, rat liver microsomes is 1090 mL/min/kg.

As for `Cc1nccc(C2(C)CCN(CC(N)=O)CC2)n1`, the MDR1-MDCK efflux ratio turned out to be 2.82; the intrinsic clearance, human liver microsomes was no more than 4.74 mL/min/kg; the intrinsic clearance, rat liver microsomes was no more than 10.7 mL/min/kg; the aqueous solubility is 59.8 µg/mL (≈ 241 µM).

Regarding `NCCOc1cccc(CC(=O)N2CCCN(C(=O)C3CCC3)CC2)c1`, the MDR1-MDCK efflux ratio was found to be 5.51; the intrinsic clearance, human liver microsomes is no more than 4.74 mL/min/kg; the intrinsic clearance, rat liver microsomes is no more than 10.7 mL/min/kg.

Consider `N#CCCCN1CCN(c2cc(C#N)ccn2)CC1`, for which the MDR1-MDCK efflux ratio came out at 0.56; the intrinsic clearance, human liver microsomes is no more than 4.74 mL/min/kg; the intrinsic clearance, rat liver microsomes turned out to be 180 mL/min/kg; the aqueous solubility came to 41.2 µg/mL (≈ 162 µM).

For `O=C(NCc1cnn2cccnc12)c1ccccc1-n1cnnc1`, the MDR1-MDCK efflux ratio was 4.87; the intrinsic clearance, human liver microsomes was no more than 4.74 mL/min/kg; the intrinsic clearance, rat liver microsomes was no more than 10.7 mL/min/kg.

`Cc1ccc(C)c(OCC(=O)N2CCC(C(=O)Nc3ccccc3)CC2)c1`: the MDR1-MDCK efflux ratio was 2.86; the intrinsic clearance, human liver microsomes is 302 mL/min/kg; the intrinsic clearance, rat liver microsomes was found to be 1390 mL/min/kg; the aqueous solubility was 3.37 µg/mL (≈ 9.2 µM).

`COc1ccc(C(=O)C2CCN(CC(=O)N(Cc3nc4c(c(=O)[nH]3)COCC4)CC3CC3)CC2)cc1`: the MDR1-MDCK efflux ratio turned out to be 53.8; the intrinsic clearance, human liver microsomes stood at 10.9 mL/min/kg; the intrinsic clearance, rat liver microsomes is 45.5 mL/min/kg; the aqueous solubility worked out at 94.5 µg/mL (≈ 191 µM).

Regarding `O=C(Nc1ccn(-c2ncccc2Cl)n1)c1csnn1`, the aqueous solubility turned out to be 28.5 µg/mL (≈ 92.9 µM).

Regarding `Cc1ccc(Nc2ccnc(Nc3ccc(C)cc3)n2)cc1`, the MDR1-MDCK efflux ratio is 0.2; the intrinsic clearance, human liver microsomes is 85.2 mL/min/kg; the intrinsic clearance, rat liver microsomes was found to be 477 mL/min/kg.

On to `CNC(=O)c1ccc(N(C)C2CCC2)nn1`, for which the MDR1-MDCK efflux ratio was 0.586; the intrinsic clearance, human liver microsomes came to 24.8 mL/min/kg; the intrinsic clearance, rat liver microsomes worked out at 40.3 mL/min/kg; the aqueous solubility is 47.3 µg/mL (≈ 215 µM).

Regarding `Cc1nc2ccc(C(=O)NCCCc3ccc(F)cc3)cc2[nH]1`, the intrinsic clearance, human liver microsomes is 8.01 mL/min/kg; the intrinsic clearance, rat liver microsomes came to 195 mL/min/kg; the aqueous solubility stood at 47.9 µg/mL (≈ 154 µM).

Regarding `Cc1cccc(-c2ncc(CNCc3ccccc3-n3cccn3)cn2)c1`, the MDR1-MDCK efflux ratio was found to be 0.593; the intrinsic clearance, human liver microsomes turned out to be 303 mL/min/kg; the intrinsic clearance, rat liver microsomes was 3450 mL/min/kg; the aqueous solubility turned out to be 22.4 µg/mL (≈ 62.9 µM).

In the case of `COc1ccc(CNC(=O)CCCOc2ccc(C(C)=O)cc2)cc1`, the MDR1-MDCK efflux ratio was determined as 1.02; the intrinsic clearance, human liver microsomes amounted to 34.5 mL/min/kg; the intrinsic clearance, rat liver microsomes was 644 mL/min/kg; the aqueous solubility was found to be 20.2 µg/mL (≈ 59.2 µM).

Consider `CC[C@@H]1[C@H](F)C(=O)N[C@@H]1COc1nccc2cc(C(N)=O)c(OC)cc12`, for which the MDR1-MDCK efflux ratio came out at 61.7; the intrinsic clearance, human liver microsomes came out at 35 mL/min/kg; the intrinsic clearance, rat liver microsomes was determined as 218 mL/min/kg; the aqueous solubility stood at 53.6 µg/mL (≈ 148 µM).

With `COC(=O)[C@@H]1C[C@H](O)CN1CC#Cc1ccc(Cl)cc1`, the MDR1-MDCK efflux ratio turned out to be 0.681 and the aqueous solubility is 31.8 µg/mL (≈ 108 µM).

Turning to `CC(C)c1csc(NC(=O)C2CCN(c3ncccn3)CC2)n1`, the MDR1-MDCK efflux ratio was found to be 0.562; the intrinsic clearance, human liver microsomes stood at 44.6 mL/min/kg; the intrinsic clearance, rat liver microsomes came to 268 mL/min/kg; the aqueous solubility turned out to be 44.8 µg/mL (≈ 135 µM).

For `CC(C)(C)CC(=O)N1CCC(OCCCN)CC1`, the MDR1-MDCK efflux ratio turned out to be 8.05; the intrinsic clearance, human liver microsomes was no more than 4.74 mL/min/kg; the intrinsic clearance, rat liver microsomes is no more than 10.7 mL/min/kg; the aqueous solubility stood at 50.6 µg/mL (≈ 198 µM).

Regarding `Cc1cc(C(=O)Nc2c(C)nn(C(C)C)c2C)c2ccc(F)cc2n1`, the MDR1-MDCK efflux ratio turned out to be 8.41; the intrinsic clearance, human liver microsomes was 6.78 mL/min/kg; the intrinsic clearance, rat liver microsomes came to 40.2 mL/min/kg; the aqueous solubility was found to be 50.5 µg/mL (≈ 148 µM).

For the compound `COc1ccc2c(c1)C=C(CN1CCC(c3cc(-c4cncnc4)cc(C)n3)CC1)CO2`, the MDR1-MDCK efflux ratio came to 1.42; the intrinsic clearance, human liver microsomes came out at 49.8 mL/min/kg; the intrinsic clearance, rat liver microsomes stood at 201 mL/min/kg; the aqueous solubility turned out to be 22.9 µg/mL (≈ 53.3 µM).

For `NCCn1cc(NC(=O)c2ccccc2)cn1`, the intrinsic clearance, human liver microsomes was no more than 4.74 mL/min/kg; the intrinsic clearance, rat liver microsomes was no more than 10.7 mL/min/kg; the aqueous solubility turned out to be 79.1 µg/mL (≈ 343 µM).

`CC(C)(C)Nc1cc(NCC2CCOCC2)c2ncc(-c3ccc(C(=O)NC4CC4)cc3)n2n1`: the MDR1-MDCK efflux ratio is 7.52 and the aqueous solubility turned out to be 0.4 µg/mL (≈ 0.865 µM).

For the compound `NC1CCCC1C(=O)N1CCC(c2c[nH]c3ncccc23)CC1` (stereo not given), the MDR1-MDCK efflux ratio came to 6.76; the fraction unbound, human plasma worked out at 0.521; the intrinsic clearance, human liver microsomes is no more than 4.74 mL/min/kg.

Take `CN1C(=O)COc2cc(NC(=O)C3CC=CC3)ccc21`: the intrinsic clearance, human liver microsomes was no more than 4.74 mL/min/kg and the intrinsic clearance, rat liver microsomes was found to be 92.7 mL/min/kg.

`Cn1ncc2c1CCc1sc(NC(=O)c3cccnc3)nc1-2`: the MDR1-MDCK efflux ratio amounted to 1.58; the intrinsic clearance, human liver microsomes is 16.6 mL/min/kg; the intrinsic clearance, rat liver microsomes is 89.2 mL/min/kg; the aqueous solubility was determined as 10.8 µg/mL (≈ 34.7 µM).

As for `CC1(c2nnc(-c3cc(-c4ccccc4)n[nH]3)o2)CCOCC1`, the MDR1-MDCK efflux ratio was determined as 1.21; the intrinsic clearance, human liver microsomes amounted to 13.5 mL/min/kg; the intrinsic clearance, rat liver microsomes worked out at 179 mL/min/kg; the aqueous solubility was determined as 18.4 µg/mL (≈ 59.1 µM).

Compound `CCCc1n[nH]c2c1C(C1CC=CCC1)C(C#N)=C(N)O2` (stereo not given) displayed an aqueous solubility of 3.07 µg/mL (≈ 10.8 µM).

For `Cn1cncc1CCNC(=O)[C@H]1CC1(C)C`, the MDR1-MDCK efflux ratio was found to be 8.23; the intrinsic clearance, human liver microsomes was no more than 4.74 mL/min/kg; the intrinsic clearance, rat liver microsomes is no more than 10.7 mL/min/kg; the aqueous solubility was 28.8 µg/mL (≈ 130 µM).

On to `Cc1nn(C)c2sc(C(=O)N3CCC(C(=O)O)(c4ccccc4)CC3)cc12`, for which the MDR1-MDCK efflux ratio came to 8.54; the intrinsic clearance, human liver microsomes is no more than 4.74 mL/min/kg; the intrinsic clearance, rat liver microsomes was no more than 10.7 mL/min/kg; the aqueous solubility came out at 73.7 µg/mL (≈ 192 µM).

For `CCS(=O)(=O)N(C)c1ccc(N(C)C)cc1`, the MDR1-MDCK efflux ratio was 0.579; the intrinsic clearance, human liver microsomes is no more than 4.74 mL/min/kg; the intrinsic clearance, rat liver microsomes turned out to be 2980 mL/min/kg.

The compound `O=C(CNC(=O)c1ccccc1Cl)Nc1cccc2c1CCCC2` registered an intrinsic clearance, human liver microsomes of 60 mL/min/kg and an intrinsic clearance, rat liver microsomes of 1840 mL/min/kg.

Consider `Cn1c(CNC(=O)Cc2cccc3ccccc23)nc2ccccc21`, for which the MDR1-MDCK efflux ratio turned out to be 2.33; the intrinsic clearance, human liver microsomes stood at 187 mL/min/kg; the intrinsic clearance, rat liver microsomes is 1590 mL/min/kg; the aqueous solubility came out at 10.1 µg/mL (≈ 30.5 µM).

For the compound `Nc1ccccc1OCCn1ccnc1`, the MDR1-MDCK efflux ratio came out at 0.815; the intrinsic clearance, human liver microsomes was 7.07 mL/min/kg; the intrinsic clearance, rat liver microsomes is 30.6 mL/min/kg; the aqueous solubility amounted to 24.7 µg/mL (≈ 121 µM).

In the case of `c1cc(CC2CCNCC2)c2cccnc2c1`, the intrinsic clearance, human liver microsomes was no more than 4.74 mL/min/kg; the intrinsic clearance, rat liver microsomes was 141 mL/min/kg; the aqueous solubility was 52.2 µg/mL (≈ 231 µM).

As to `O=c1[nH]c2ccccc2n1C1CCN(Cc2nc(Cc3ccccc3)no2)CC1`, the intrinsic clearance, human liver microsomes came out at 69.7 mL/min/kg and the intrinsic clearance, rat liver microsomes is 857 mL/min/kg.

As to `O=C1NCCCCC1NC(=O)N1CCc2sccc2C1` (stereo not given), the MDR1-MDCK efflux ratio is 4.48; the intrinsic clearance, human liver microsomes was 4.84 mL/min/kg; the intrinsic clearance, rat liver microsomes was found to be 47 mL/min/kg; the aqueous solubility was determined as 49.6 µg/mL (≈ 169 µM).

Turning to `NC(=O)COc1ccccc1-c1ccccc1`, the MDR1-MDCK efflux ratio is 0.621; the intrinsic clearance, human liver microsomes is 25.9 mL/min/kg; the intrinsic clearance, rat liver microsomes worked out at 75.6 mL/min/kg; the aqueous solubility came to 39 µg/mL (≈ 172 µM).

With `COc1cc(CN2CCC(C(=O)N3CCOCC3)CC2)ccc1C`, the MDR1-MDCK efflux ratio turned out to be 2.9; the intrinsic clearance, human liver microsomes came out at 9.42 mL/min/kg; the intrinsic clearance, rat liver microsomes came to 228 mL/min/kg.

As for `COc1cc(NC(=O)c2ccc(F)cc2C)ncn1`, the MDR1-MDCK efflux ratio stood at 0.558; the intrinsic clearance, human liver microsomes was 8.37 mL/min/kg; the intrinsic clearance, rat liver microsomes came to 49.1 mL/min/kg; the aqueous solubility was determined as 15.8 µg/mL (≈ 60.3 µM).

Turning to `Cc1cccc(N2CCN(CCCCNC(=O)c3c(F)cccc3F)CC2)c1`, the MDR1-MDCK efflux ratio is 1.22; the intrinsic clearance, human liver microsomes came out at 76.3 mL/min/kg; the intrinsic clearance, rat liver microsomes amounted to 510 mL/min/kg.
